Source: ChEMBL document CHEMBL5653631, “A Potent and Selective ULK1 Inhibitor Suppresses Autophagy and Sensitizes Cancer Cells to Nutrient Stress” (iScience, 2018)
Each block holds one molecule with its values, some of them ahead of it.

How the values were obtained:
[1] = biological target: T1, Serine/threonine-protein kinase TBK1 (Homo sapiens) (UniProt Q9UHD2); experiment: Inhibition of human recombinant TBK1 at 500 nM related to control ULK1
T1 sequence (whole entry): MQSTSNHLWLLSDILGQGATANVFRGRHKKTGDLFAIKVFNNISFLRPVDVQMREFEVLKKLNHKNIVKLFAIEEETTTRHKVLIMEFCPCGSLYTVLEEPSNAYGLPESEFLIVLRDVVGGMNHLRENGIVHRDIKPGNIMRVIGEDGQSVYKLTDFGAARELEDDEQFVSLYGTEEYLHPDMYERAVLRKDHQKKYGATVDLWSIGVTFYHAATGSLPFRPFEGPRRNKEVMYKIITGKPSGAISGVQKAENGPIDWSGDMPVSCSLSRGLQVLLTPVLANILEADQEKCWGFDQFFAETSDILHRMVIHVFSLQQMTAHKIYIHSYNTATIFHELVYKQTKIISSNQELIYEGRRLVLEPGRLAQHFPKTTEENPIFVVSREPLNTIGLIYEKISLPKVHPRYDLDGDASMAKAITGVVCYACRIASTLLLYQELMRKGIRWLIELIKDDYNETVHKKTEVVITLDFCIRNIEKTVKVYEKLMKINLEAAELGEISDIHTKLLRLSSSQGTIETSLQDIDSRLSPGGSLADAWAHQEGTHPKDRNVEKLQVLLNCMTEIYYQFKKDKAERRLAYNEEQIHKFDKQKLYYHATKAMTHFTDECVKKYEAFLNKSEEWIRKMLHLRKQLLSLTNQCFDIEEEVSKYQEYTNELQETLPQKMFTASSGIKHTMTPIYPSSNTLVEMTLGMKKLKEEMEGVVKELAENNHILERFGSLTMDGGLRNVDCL

[2] = biological target: Tyrosine-protein kinase Fes/Fps (Homo sapiens) (UniProt P07332); experiment: Inhibition of human recombinant FES at 500 nM related to control ULK1
[3] = biological target: Protein kinase C theta type (Homo sapiens) (UniProt Q04759); experiment: Inhibition of human recombinant PKCt at 500 nM in presence of ATP by radiometric assay relative to control
Homo sapiens = organism: Homo sapiens; experiment: Inhibition of human recombinant ABL at 500 nM related to control ULK1
[4] = biological target: Serine/threonine-protein kinase WNK1 (Homo sapiens) (UniProt Q9H4A3); experiment: Inhibition of human recombinant Wnk1 at 500 nM in presence of ATP by radiometric assay relative to control
[5] = biological target: T2, Serine/threonine-protein kinase TAO1 (Homo sapiens) (UniProt Q7L7X3); experiment: Inhibition of human recombinant TAO1 at 500 nM related to control ULK1
T2 sequence (whole entry): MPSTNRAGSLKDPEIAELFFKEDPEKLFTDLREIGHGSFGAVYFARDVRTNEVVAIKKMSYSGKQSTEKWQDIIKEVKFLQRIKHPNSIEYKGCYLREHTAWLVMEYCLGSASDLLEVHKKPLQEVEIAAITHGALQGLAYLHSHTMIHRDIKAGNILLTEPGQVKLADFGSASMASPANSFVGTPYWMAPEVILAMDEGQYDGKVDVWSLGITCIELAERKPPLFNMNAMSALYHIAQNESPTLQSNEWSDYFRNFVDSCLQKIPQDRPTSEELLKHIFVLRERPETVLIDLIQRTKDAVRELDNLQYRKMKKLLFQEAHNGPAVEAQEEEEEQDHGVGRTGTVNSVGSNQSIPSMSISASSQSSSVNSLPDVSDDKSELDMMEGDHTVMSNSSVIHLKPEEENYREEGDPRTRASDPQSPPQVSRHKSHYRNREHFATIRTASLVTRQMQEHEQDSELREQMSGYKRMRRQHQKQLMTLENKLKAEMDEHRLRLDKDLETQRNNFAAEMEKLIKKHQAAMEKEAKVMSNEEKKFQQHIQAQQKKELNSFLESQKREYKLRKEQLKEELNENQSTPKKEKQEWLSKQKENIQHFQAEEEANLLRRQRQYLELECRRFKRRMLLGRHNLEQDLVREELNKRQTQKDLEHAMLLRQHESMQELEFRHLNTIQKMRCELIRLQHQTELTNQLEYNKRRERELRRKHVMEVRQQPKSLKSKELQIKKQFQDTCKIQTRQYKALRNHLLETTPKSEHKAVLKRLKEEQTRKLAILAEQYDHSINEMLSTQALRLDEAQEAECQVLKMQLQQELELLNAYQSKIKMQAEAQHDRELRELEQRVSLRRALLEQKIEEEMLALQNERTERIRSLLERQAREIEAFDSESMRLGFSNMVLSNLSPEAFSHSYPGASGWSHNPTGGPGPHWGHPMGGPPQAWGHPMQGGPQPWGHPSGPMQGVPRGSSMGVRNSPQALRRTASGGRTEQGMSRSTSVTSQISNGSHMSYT

[6] = biological target: Cyclin-dependent kinase 13 (Homo sapiens) (UniProt Q14004); experiment: Inhibition of human recombinant CHED at 500 nM in presence of ATP by radiometric assay relative to control
[7] = biological target: Fibroblast growth factor receptor 1 (Homo sapiens) (UniProt P11362); experiment: Inhibition of human recombinant FGFR1 at 500 nM related to control ULK1
[8] = biological target: Serine/threonine-protein kinase 32C (Homo sapiens) (UniProt Q86UX6); experiment: Inhibition of human recombinant YANK3 at 15 nM in presence of ATP by radiometric assay relative to control
[9] = biological target: Serine/threonine-protein kinase WNK2 (Homo sapiens) (UniProt Q9Y3S1); experiment: Inhibition of human recombinant Wnk2 at 15 nM related to control ULK1
[10] = biological target: Proto-oncogene tyrosine-protein kinase ROS (Homo sapiens) (UniProt P08922); experiment: Inhibition of human recombinant ROS at 15 nM related to control ULK1
[11] = biological target: Serine/threonine-protein kinase PAK 6 (Homo sapiens) (UniProt Q9NQU5); experiment: Inhibition of human recombinant PAK6 at 40 nM in presence of ATP by radiometric assay relative to control
[12] = biological target: Serine/threonine-protein kinase 25 (Homo sapiens) (UniProt O00506); experiment: Inhibition of human recombinant YSK1 at 40 nM in presence of ATP by radiometric assay relative to control
Sequence of Serine/threonine-protein kinase 25 (Homo sapiens) (O00506 whole entry, looked up): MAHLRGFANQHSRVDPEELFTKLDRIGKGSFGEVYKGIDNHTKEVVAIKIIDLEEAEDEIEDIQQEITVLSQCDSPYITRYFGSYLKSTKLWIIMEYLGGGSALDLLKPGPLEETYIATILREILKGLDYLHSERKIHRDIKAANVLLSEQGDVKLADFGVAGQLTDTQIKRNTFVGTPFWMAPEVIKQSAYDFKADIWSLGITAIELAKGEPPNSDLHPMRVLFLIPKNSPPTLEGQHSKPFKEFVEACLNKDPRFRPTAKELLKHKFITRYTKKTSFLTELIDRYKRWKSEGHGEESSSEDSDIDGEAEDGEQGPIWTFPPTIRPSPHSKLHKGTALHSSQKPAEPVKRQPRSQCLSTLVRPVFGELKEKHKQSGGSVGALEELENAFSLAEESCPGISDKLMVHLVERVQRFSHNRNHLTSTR

Sequence of Protein kinase C theta type (Homo sapiens) (Q04759 whole entry, looked up): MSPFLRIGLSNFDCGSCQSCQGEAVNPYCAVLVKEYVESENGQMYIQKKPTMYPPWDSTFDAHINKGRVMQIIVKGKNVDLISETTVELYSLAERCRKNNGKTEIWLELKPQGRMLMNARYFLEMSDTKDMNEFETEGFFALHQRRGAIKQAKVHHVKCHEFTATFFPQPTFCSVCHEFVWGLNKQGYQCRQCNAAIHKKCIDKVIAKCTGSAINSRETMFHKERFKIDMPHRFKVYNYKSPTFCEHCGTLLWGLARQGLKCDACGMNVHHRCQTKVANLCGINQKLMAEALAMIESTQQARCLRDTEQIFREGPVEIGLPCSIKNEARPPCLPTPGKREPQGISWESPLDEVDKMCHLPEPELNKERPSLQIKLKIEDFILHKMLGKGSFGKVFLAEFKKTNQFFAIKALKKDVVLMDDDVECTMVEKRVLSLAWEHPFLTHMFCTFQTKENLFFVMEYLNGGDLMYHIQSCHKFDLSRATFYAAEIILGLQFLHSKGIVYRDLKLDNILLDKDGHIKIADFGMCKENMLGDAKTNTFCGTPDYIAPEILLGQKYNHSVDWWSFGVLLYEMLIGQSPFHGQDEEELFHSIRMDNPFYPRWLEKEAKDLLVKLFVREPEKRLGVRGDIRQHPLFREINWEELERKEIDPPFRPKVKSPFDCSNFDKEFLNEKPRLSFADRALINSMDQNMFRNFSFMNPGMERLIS
Sequence of Proto-oncogene tyrosine-protein kinase ROS (Homo sapiens) (P08922 whole entry): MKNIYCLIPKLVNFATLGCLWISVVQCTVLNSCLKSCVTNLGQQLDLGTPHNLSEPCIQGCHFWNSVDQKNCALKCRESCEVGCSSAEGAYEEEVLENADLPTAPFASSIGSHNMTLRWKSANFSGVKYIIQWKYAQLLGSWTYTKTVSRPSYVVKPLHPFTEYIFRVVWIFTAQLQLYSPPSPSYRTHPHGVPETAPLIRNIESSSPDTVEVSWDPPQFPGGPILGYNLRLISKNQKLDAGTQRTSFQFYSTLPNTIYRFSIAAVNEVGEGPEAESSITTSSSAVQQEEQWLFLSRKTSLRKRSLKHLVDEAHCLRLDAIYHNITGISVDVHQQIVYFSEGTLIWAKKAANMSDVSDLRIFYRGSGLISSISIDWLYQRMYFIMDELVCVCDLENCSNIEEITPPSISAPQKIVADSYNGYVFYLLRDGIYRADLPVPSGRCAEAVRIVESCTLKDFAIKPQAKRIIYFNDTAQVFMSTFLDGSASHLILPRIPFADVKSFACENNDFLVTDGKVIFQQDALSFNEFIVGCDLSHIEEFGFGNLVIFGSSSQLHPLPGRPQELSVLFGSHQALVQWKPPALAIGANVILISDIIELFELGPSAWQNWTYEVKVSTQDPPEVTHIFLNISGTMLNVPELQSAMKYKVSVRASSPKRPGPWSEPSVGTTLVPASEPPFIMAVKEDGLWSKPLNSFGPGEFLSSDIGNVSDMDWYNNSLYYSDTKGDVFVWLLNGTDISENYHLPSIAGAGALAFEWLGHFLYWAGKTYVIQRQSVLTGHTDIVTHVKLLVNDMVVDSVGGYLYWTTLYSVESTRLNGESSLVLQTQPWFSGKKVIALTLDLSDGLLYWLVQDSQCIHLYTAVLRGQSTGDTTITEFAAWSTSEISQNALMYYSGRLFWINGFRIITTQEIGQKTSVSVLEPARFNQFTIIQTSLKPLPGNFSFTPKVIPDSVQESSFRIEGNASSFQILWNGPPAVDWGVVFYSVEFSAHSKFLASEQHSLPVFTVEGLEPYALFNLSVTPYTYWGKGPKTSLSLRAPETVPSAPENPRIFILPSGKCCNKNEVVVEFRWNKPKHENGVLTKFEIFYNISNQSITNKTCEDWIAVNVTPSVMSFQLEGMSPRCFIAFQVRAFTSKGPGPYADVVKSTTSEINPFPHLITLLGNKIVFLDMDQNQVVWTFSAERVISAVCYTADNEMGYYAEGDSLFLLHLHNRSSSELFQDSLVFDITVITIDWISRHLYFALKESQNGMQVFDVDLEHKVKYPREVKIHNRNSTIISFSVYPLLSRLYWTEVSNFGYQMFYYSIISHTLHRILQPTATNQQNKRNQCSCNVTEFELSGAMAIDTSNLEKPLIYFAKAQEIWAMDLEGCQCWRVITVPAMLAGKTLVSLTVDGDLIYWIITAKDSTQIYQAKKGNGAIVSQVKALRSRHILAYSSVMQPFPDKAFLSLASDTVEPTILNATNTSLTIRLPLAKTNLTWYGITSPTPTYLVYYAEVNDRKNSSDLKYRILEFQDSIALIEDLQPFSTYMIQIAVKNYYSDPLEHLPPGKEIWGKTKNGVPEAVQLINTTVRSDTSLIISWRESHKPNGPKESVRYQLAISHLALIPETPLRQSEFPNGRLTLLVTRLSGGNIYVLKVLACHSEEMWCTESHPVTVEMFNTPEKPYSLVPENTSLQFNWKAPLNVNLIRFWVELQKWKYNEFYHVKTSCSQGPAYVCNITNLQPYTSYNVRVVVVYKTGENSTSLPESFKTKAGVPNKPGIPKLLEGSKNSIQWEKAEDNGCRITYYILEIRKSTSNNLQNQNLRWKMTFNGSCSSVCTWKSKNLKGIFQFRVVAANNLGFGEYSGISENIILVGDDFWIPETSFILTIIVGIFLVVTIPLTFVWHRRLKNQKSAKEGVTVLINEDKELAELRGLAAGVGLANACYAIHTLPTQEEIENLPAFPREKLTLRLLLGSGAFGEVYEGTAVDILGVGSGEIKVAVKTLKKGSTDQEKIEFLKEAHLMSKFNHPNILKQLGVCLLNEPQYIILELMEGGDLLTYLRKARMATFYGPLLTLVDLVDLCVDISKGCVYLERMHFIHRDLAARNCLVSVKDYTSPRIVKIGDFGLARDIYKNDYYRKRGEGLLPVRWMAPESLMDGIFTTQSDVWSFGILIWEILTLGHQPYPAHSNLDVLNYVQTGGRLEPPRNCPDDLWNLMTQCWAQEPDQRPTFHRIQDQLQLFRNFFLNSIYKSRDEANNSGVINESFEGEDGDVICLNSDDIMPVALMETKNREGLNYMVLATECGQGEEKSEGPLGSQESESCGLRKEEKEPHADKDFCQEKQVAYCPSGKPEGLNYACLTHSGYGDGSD
Sequence of Fibroblast growth factor receptor 1 (Homo sapiens) (P11362 22-822 limits assumed): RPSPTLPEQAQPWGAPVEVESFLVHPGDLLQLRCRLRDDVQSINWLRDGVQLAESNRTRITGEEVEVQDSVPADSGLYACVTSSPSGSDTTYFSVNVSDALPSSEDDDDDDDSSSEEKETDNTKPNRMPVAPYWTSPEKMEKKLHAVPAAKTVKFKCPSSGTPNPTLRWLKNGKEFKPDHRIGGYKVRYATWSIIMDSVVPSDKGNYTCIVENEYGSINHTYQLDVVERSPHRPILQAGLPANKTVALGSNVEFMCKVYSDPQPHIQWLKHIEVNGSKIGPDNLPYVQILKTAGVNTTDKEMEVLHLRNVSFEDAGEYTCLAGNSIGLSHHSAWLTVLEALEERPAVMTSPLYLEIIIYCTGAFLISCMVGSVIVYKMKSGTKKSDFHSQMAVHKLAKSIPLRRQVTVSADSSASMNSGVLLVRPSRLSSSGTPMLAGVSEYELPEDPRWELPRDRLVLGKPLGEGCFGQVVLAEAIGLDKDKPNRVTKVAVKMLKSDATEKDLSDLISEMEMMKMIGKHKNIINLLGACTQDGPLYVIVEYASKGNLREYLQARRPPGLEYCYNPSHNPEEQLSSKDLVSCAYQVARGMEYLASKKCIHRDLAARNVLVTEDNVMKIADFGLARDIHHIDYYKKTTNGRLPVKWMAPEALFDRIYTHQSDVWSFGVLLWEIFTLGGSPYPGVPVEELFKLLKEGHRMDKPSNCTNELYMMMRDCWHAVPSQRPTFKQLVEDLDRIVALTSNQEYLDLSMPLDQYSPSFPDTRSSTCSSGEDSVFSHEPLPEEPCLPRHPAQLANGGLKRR
Sequence of Serine/threonine-protein kinase PAK 6 (Homo sapiens) (Q9NQU5 whole entry, looked up): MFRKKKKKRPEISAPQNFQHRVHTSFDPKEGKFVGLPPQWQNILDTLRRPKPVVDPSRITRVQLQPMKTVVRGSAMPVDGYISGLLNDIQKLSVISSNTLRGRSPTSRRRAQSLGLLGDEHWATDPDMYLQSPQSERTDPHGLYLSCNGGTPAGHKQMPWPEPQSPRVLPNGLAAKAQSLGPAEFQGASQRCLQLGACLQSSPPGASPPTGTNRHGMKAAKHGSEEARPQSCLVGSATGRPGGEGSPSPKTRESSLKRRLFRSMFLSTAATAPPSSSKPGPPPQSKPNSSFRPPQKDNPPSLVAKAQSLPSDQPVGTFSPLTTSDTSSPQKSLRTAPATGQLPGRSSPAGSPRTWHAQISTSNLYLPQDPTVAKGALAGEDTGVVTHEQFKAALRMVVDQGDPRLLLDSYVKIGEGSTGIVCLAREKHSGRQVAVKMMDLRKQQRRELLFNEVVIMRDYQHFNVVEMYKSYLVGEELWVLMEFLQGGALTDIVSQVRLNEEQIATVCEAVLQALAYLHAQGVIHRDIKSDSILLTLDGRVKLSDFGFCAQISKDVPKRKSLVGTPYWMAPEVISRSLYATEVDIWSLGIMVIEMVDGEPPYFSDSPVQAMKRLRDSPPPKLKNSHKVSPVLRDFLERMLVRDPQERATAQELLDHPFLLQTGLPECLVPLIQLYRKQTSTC

fold change (FC) [1]: 0
fold change (FC) [2]: 0.38
inhibition [3]: 0%
fold change (FC) (Homo sapiens): 0.19
inhibition [4]: 0%
fold change (FC) [5]: 0.08
inhibition [6]: 0%
fold change (FC) [7]: 0.47
SMILES: CNC(=O)c1ccccc1Oc1nc(Nc2cc(OC)c(OC)c(OC)c2)ncc1Br

inhibition [8]: 3%
fold change (FC) [9]: 0.02
fold change (FC) [10]: 0
SMILES: CC(C)[C@H](NC(=O)c1cc(-c2cnn3cc(-c4ccc(OCCN5CCCCC5)cc4)cnc23)cs1)C(F)(F)F

inhibition [11]: 7%
inhibition [12]: 0%
SMILES: O=C(N[C@@H](C1CC1)C(F)(F)F)c1cc(-c2cnn3cc(-c4ccc(F)cc4)cnc23)cs1
